From PubChem BioAssay AID434987 (Southern Research Specialized Biocontainment Screening …, 2010) come the findings set out here.

This assay concerns M. tuberculosis H37Rv growth inhibition with meropenem. The experiment in a line: dose response, H37Rv, with and without meropenem (AID 434987).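 Further: growth over 7 days at 37 °C before Alamar Blue read on day 9.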
Where [1] appears, read: M. tuberculosis H37Rv growth inhibition, measured here: IC50 without meropenem.
The mark [2] stands for this setting: M. tuberculosis H37Rv growth inhibition, measured here: IC90 without meropenem.
[3] abbreviates: measured here: IC90 with meropenem.

The source made the active and inactive calls. How the calls were made is not given here.

With `COc1cc(NC(=O)c2cc(-c3cccnc3)nc3ccc(Br)cc23)cc(OC)c1`, the IC50 is > 100 µM (inactive). The compound also gave an IC50 under setting [1] of over 100 µM. This compound gave a concentration for an effect of 90% (IC90) under setting [2] of over 100 µM. For the same compound, the IC90 under setting [3] was over 100 µM.

Regarding `CC[C@@]1(c2ccccc2OC)C(=O)N(C(=O)OC)N1C(=O)OC`, the IC50 is 13.9 µM. The compound further had an IC50 under setting [1] of over 100 µM. The compound also had an IC90 under setting [2] of over 100 µM. Under setting [3], this compound displayed an IC90 of over 100 µM.

Consider `C=C1C(=O)O[C@@H]2[C@H]1[C@@H](OC(=O)/C(C)=C/C)C/C(C)=C\C(=O)/C=C(\C)[C@@H]2O`, for which the IC50 was 1.24 µM. The IC50 under setting [1] turned out to be 18.6 µM. The same compound gave an IC90 under setting [2] of 29 µM. Under setting [3], this compound came in with an IC90 of 25.2 µM.

As for `CN(C)c1ccc(S(=O)(=O)NCC(=O)OCC(=O)Nc2cccc(Cl)c2)cc1[N+](=O)[O-]`, the IC50 is > 100 µM (inactive). Also, under setting [1], the IC50 was over 100 µM. This compound yielded an IC90 under setting [2] of over 100 µM. The IC90 under setting [3] is over 100 µM.

As for `Cc1cc2ccccn2c1C(=O)c1ccc([N+](=O)[O-])o1`, the IC50 is > 100 µM (inactive). The compound further displayed an IC50 under setting [1] of over 100 µM. Under setting [2], this compound returned an IC90 of over 100 µM. In addition, the IC90 under setting [3] was over 100 µM.

For `O=C(Nc1ccc2nc3n(c(=O)c2c1)CCCC3)c1cc([N+](=O)[O-])ccc1F`, the IC50 was 83.8 µM (inactive). For the same compound, the IC50 under setting [1] was 83.1 µM. This compound also returned an IC90 under setting [2] of 90 µM. In addition, under setting [3], the IC90 turned out to be 91 µM.

Take `O=C(Cn1nnc2c(cnn2-c2ccccc2)c1=O)N1CCN(c2ccccc2F)CC1`: the IC50 was > 100 µM (inactive). The compound also displayed a concentration for half-maximal inhibition (IC50) under setting [1] of over 100 µM. Besides, under setting [2], the IC90 was over 100 µM. Under setting [3], this compound yielded an IC90 of over 100 µM.

As to `O=C(Nc1ccccc1-c1ccccc1)C12CC3CC(CC(C3)C1)C2`, the IC50 was > 100 µM (inactive). This compound also yielded an IC50 under setting [1] of over 100 µM. Besides, the IC90 under setting [2] was over 100 µM. The compound further yielded an IC90 under setting [3] of over 100 µM.

Regarding `O=C(N/N=C/c1ccc(-c2cccc(C(F)(F)F)c2)o1)c1ccccc1O`, the IC50 was 32.8 µM. This compound gave a half-maximal inhibitory concentration (IC50) under setting [1] of over 100 µM. The same compound returned an IC90 under setting [2] of over 100 µM. For the same compound, the IC90 under setting [3] was over 100 µM.

Turning to `CCC1CCCCN1C(=O)CSc1nnc(-c2ccc(Cl)s2)o1` (stereo not drawn), the IC50 was > 100 µM (inactive). For the same compound, the half-maximal inhibitory concentration (IC50) under setting [1] is over 100 µM. Further, the IC90 under setting [2] was over 100 µM. This compound came in with an IC90 under setting [3] of over 100 µM.

In the case of `COc1ccc(OC)c(NC(=O)CS(=O)(=O)c2ccccc2)c1`, the IC50 was 12.1 µM (inactive). Under setting [1], this compound came in with an IC50 of 28.7 µM. The compound further showed an IC90 under setting [2] of over 100 µM. For the same compound, the IC90 under setting [3] was found to be 14.3 µM.

Consider `COc1ccc2nc(SCc3cccc(C)c3)nc(C)c2c1`, for which the IC50 is > 100 µM (inactive). This compound came in with an IC50 under setting [1] of over 100 µM. The IC90 under setting [2] is over 100 µM. The compound also displayed an IC90 under setting [3] of over 100 µM.

Regarding `COc1ccc(C2C(C#N)=C(SCC(=O)Nc3ccc(C)cc3)NC3=C2C(=O)CC(C)(C)C3)cc1` (stereo not drawn), the IC50 was 94.3 µM (inactive). This compound showed an IC50 under setting [1] of over 100 µM. The IC90 under setting [2] is over 100 µM. This compound registered an IC90 under setting [3] of over 100 µM.

For `Cc1ccc(C2=NN(C(=O)CN3C(=O)c4ccccc4S3(=O)=O)C(c3ccco3)C2)cc1` (stereo not drawn), the IC50 was > 100 µM (inactive). This compound showed an IC50 under setting [1] of over 100 µM. The compound further showed an IC90 under setting [2] of over 100 µM. This compound also showed an IC90 under setting [3] of over 100 µM.

In the case of `N#Cc1c(C(F)(F)F)cc(-c2ccccc2)nc1SCC(=O)Nc1sc2c(c1C#N)CCC2`, the IC50 was > 100 µM (inactive). Under setting [1], this compound registered an IC50 of over 100 µM. The compound further came in with an IC90 under setting [2] of over 100 µM. The same compound had an IC90 under setting [3] of over 100 µM.

As for `CN(c1ccc(C(=O)Nc2ccccc2Sc2ccccc2)cc1)S(C)(=O)=O`, the IC50 is > 100 µM (inactive). For the same compound, under setting [1], the IC50 is over 100 µM. The compound also displayed an IC90 under setting [2] of over 100 µM. Under setting [3], this compound yielded an IC90 of over 100 µM.

For the compound `Cc1ccc(C2=NN3C(=O)c4ccccc4C3C2)cc1` (stereo not drawn), the IC50 is 11.1 µM. This compound yielded an IC50 under setting [1] of 49 µM. This compound had an IC90 under setting [2] of over 100 µM. Under setting [3], this compound returned a concentration for an effect of 90% (IC90) of 35.1 µM.

Turning to `CCn1c2ccccc2c2cc(NC(=O)c3cccc(OC)c3OC)ccc21`, the IC50 is > 100 µM (inactive). The IC50 under setting [1] is over 100 µM. This compound also had a 90% effect concentration (IC90) under setting [2] of over 100 µM. Besides, the IC90 under setting [3] was over 100 µM.

For the compound `CCOC(=O)c1c(C)[nH]c(N=Nc2ccccc2Cl)c1C`, the IC50 was 32.4 µM (inactive). The IC50 under setting [1] was 63.1 µM. Under setting [2], this compound yielded an IC90 of over 100 µM. The same compound returned an IC90 under setting [3] of over 100 µM.

Consider `Cc1ccccc1/C=N\NC(=O)c1csnn1`, for which the IC50 is 21.6 µM. Under setting [1], the IC50 is over 100 µM. Under setting [2], this compound showed an IC90 of over 100 µM. The compound also had an IC90 under setting [3] of over 100 µM.

As to `CCN(CC(=O)Nc1ccccc1OC)C(=O)c1cc(S(=O)(=O)N2CCCCCC2)ccc1OC`, the IC50 was > 100 µM (inactive). Under setting [1], this compound showed an IC50 of over 100 µM. The compound further came in with an IC90 under setting [2] of over 100 µM. Under setting [3], this compound registered an IC90 of over 100 µM.

With `COc1nc(-c2ccccc2)ccc1-c1noc(-c2cccnc2)n1`, the IC50 is > 100 µM (inactive). Further, under setting [1], the IC50 was over 100 µM. Under setting [2], this compound yielded an IC90 of over 100 µM. This compound came in with an IC90 under setting [3] of over 100 µM.
